Values joined by “and” are separate entries in the source; they are usually repeats but may differ in a detail not shown here. Equal entries are not always repeated.
Tests used:
[1] = Ototoxicity, auditory brainstem response (ABR) after round window membrane application; format: in vivo, guinea pig; conditions: for Δ presurgery (ABR threshold change) / ABR treshold (dB): cisplatin 0.66 mg/ml in PBS, P60.4Ac 2 mg/ml in phosphate buffer; for ABR treshold (dB): round window membrane
Description: For evaluating the ototoxicity, nine healthy male albino guinea pigs (500-1200 g), free of external ear pathology, were used. Animals were anesthetized with intraperitoneal injections of ketamine 40 mg/kg and rompun 10 mg/kg. After control auditory testing was performed, the auditory bullae were surgically opened to apply a small piece of spongostan to the round window membrane (RWM) and various solutions (approximately 10 μL) were added on the spongostan. The skin was sutured closed and follow-up auditory testing was performed.
The guinea pigs were divided into three groups, each consisting of two animals to be treated and one control animal. Test and control formulations were administered onto the RWM of the right ears, while the left ears remained untreated. […] Group 2 received the peptide (2 mg/ml) in phosphate buffer (pH7.5) and group 3 received the peptide (2 mg/ml) in formulation solution comprising 7% macrogol 10,000 in isotonic sodium chloride solution preserved with 0.02% benzalkonium chloride and 0.1% Na2EDTA, buffered at pH 5.5 with phosphate.
Auditory brainstem response (ABR) was performed prior to drug administration and directly after surgery and 3, 7, 14 and 22 days later, using a computer-based signal averaging system (Tucker-Davis Technology, Alucha, Fla., USA). Guinea pigs were anesthetized and an insert earphone was placed into the external ear canal. […] Ground electrodes were placed over the neck muscles. ABRs were recorded in an electrically shielded, double-walled, radio-frequency-shielded sound chambre in response to 10 ms tone bursts at 1 kHz. Stimulus intensities were measured and expressed as dB. ABR treshold was defined as the lowest intensity capable of eliciting a replicable, visually detectable response. The post-treatment ABR tresholds were compared to pre-treatment ABR tresholds.

[2] = Systemic single and repeated dose toxicity, intravenous; format: in vivo, rat; conditions: rats
Description: (§1) Compound P60.4Ac was prepared according to example 1 and tested for its tolerability in vivo. More specifically, its potential for causing skin and eye irritation was evaluated in rabbits, whereas its ototoxicity was studied in a guinea pig model. Furthermore, its systemic toxicity was assessed after intravenous administration.
The systemic toxicity of P60.4Ac was assessed in a single and repeated dose toxicity study in rats. The peptide was administered daily intravenously in escalating doses. In this phase, the Maximum Tolerated Dose (MTD) was established. Repeated dose toxicity was also studied in the MTD phase. In the dose escalation phase, 9 rats were divided in three groups and received 0.4, 2 or 8 mg/kg/day for two days. Clinical signs were recorded twice daily on days of dosing and one day after dosing, body weights were recorded prior to the first dose and one day after dosing. In the MTD phase, 5 female and 5 male rats received 8 mg/kg/day for 5 following days. Clinical signs were recorded twice daily on days of dosing, body weight on day 1 and 6. Clinical laboratory investigations were performed prior to necropsy. Macroscopy was performed at termination of the MTD phase.

Skin irritation test = format: in vivo, rabbit; conditions: 0.5 ml peptide solution 2 mg/ml on clipped skin for 4 hours, semi-occlusive; observed 1-72 hours
Description: as §1
(§2) For the skin and eye irritation tests, three rabbits were exposed to 0.5 ml phosphate buffered peptide solution (2 mg/ml), applied onto clipped skin for 4 hours using a semi-occlusive dressing. Observations were made 1, 24, 48, and 72 hours after exposure. Single samples of 0.1 ml of phosphate buffered (pH7.5) peptide solution (2 mg/ml) were instilled into one eye of each of three rabbits to perform an acute eye irritation/corrosion study. Observations were made 1, 24, 48, and 72 hours after instillation.

[3] = Acute eye irritation/corrosion study; format: in vivo, rabbit; conditions: 0.1 ml peptide solution 2 mg/ml (pH7.5) instilled into one eye
Description: as §1, §2

lipoteichoic acid (LTA) = assay: LTA neutralization, whole blood (WB) assay; format: cell-based; conditions: ±SD, n = 3
Description: (§3) Compounds prepared according to example 1 were tested for their capability to neutralize the bacterial toxin LPS with a limulus amoebocyte lysate (LAL) assay and with a whole blood (WB) assay. LTA neutralization was also measured with a whole blood assay. Peptide LL-37 was used as a positive control. The peptide concentration whereby 50% LPS is neutralized (50% inhibition) was used as a measure of the peptide's activity. These concentration values were as in table 1. The differences between the compounds within each assay were not statistically significant.

bacterial toxin LPS [4] = assay: LPS neutralization, whole blood (WB) assay; format: cell-based; conditions: ±SD
Description: as §3

[5] = tested on: peripheral blood mononuclear cells (PBMC); assay: γ-IFN Elispot assay (cytokine secretion); format: cell-based; conditions: for γ-IFN Elispot: fraction of positive stimulation indices (positive: >2), PBMC, 48 hours of culture
Description: (§4) The compounds prepared according to example 1 were tested for their therapeutically undesirable immunogenic activity by using Elispot, T-cell proliferation, ERK-activation, and neutrophil chemotaxis assays. The Elispot assay is applicable to determine effects of drugs, chemicals or other compounds on cytokine secretion in vitro, thereby providing data on their putative modulatory effects on immune function in vivo. The results of the assay are given as fraction of positive responses to IFN-gamma. […] Cytokines are direct mediators of inflammation and influence the progress and direction of many immunological reactions. Perturbation of the balance in cytokine production is widely recognized as a critical factor in several disease states. This balance is already disturbed in the case of conditions such as otitis media with effusion and sinusitis. T cell proliferation is also not favorable in this situation, because this will also stimulate the immune response that is already out of control.
(§5) For T cell proliferation, 150,000 peripheral blood mononuclear cells (PBMC) were cultured in the absence or presence of 10 μg/ml of the compounds for 5 days in 96 well round bottom plates (Costar Inc. Cambridge, Mass.) in a final volume of 150 μl IMDM complete. As a positive control, PBMC were cultured in the presence of 25 U/ml recombinant IL-2. During the final 20 hours of culture, PBMC were pulsed with [3H] thymidine (0.5 microCi/well), after which ^3H-incorporation was measured by liquid scintillation counting. For detection of the T cell cytokines IFN and IL-10 by Elispot analysis, 1.5×10^6 PBMC were cultured in 0.5 ml IMDM complete in the absence or presence of various concentrations of synthetic peptide. As a positive control PBMC were stimulated by 10 μg/ml poke weed mitogen (PWM). After 48 hours of culture, PBMC were harvested by gently rinsing the wells with warm IMDM to collect non-adherent cells, which were washed in a large volume of IMDM. PBMC were subsequently plated on antibody-precoated ELISA plates and cultured for 5 hours in IMDM supplemented with 2% pooled human AB serum at 37° C. 5% CO2, after which the plates were developed according to the manufacturer's protocol (U-CyTech, Utrecht, The Netherlands). Spots were counted on an Olympus microscope and analyzed with Olympus Micro Image 4.0 software (Paes Nederland, Zoeterwoude, The Netherlands). The final results are expressed as fraction of positive stimulation indices (positiv: >2).

[6] = tested on: neutrophils isolated from peripheral blood; assay: Neutrophil chemotaxis, modified Boyden chamber; format: cell-based; conditions: percentage neutrophils on the membrane compared to positive control 10^-8 M FMLP; 90 minutes
Description: Neutrophils chemotaxis was measured with neutrophils isolated from peripheral blood using Percoll density centrifugation (density: 1.082 g/ml). The cells were resuspended at a concentration of 2.5×10^6 cells/ml in chemotaxis medium (20 mM N-2-hydroxyethylpiperazine-N′-2-ethanesulfonic acid (HEPES buffer) HEPES, 132 mM NaCl, 6 mM KCl, 1.2 mM KH2PO4, 1 mM MgSO4, 5.5 mM glucose, 0.1 mM CaCl2 and 0.5% (wt/vol) human serum albumin [Central Laboratory of the Netherlands Red Cross Blood Transfusion Service (CLB), Amsterdam, The Netherlands] diluted 1:1 with serum-free RPMI. The chemotactic activity of the compounds was assessed using a modified Boyden Camber technique. Briefly, 26 μl stimuli diluted in HEPES buffer was added to the wells of the lower compartment, and 50 μl of neutrophil suspension (2.5×10^6 cells/ml) was added to the upper compartment. The compartments were separated by two filters: a lower filter with a pore size of 0.45 μm (Millipore Products, Bedford, Mass.) and an upper filter with a pore size of 8 μm (Sartorius Filter, San Francisco, Calif.). After incubation for 90 minutes at 37° C., the upper filters were removed, fixed in ethanol-butanol (80:20, vol/vol), and stained with Weigert solution. To determine neutrophil chemotactic activity, neutrophils were counted in six random high-power fields (×400), and the percentage neutrophils on the membrane as compared to the positive control (10^-8 M N-formylmethionyl-leucyl-phenylalanine (FMLP, Sigma) was calculated.

bacterial toxin LPS [7] = assay: LPS neutralization, limulus amoebocyte lysate (LAL) assay; format: biochemical; conditions: ±SD; for 50%-LPS inhibition, Average: average of LAL-assay and WB-assay
Description: as §3

[8] = tested on: peripheral blood mononuclear cells (PBMC); assay: T cell proliferation ([3H] thymidine incorporation); format: cell-based; conditions: fraction of positive stimulation indices (positive: >2), 10 μg/ml, 5 days
Description: as §4, §5

[9] = i.v. 0.4, 2 or 8 mg/kg/day for two days

| Substance | 50%-LTA inh. (lipoteichoic acid (LTA)) [µg/mL] | 50%-LPS inhibition, WB-assay (bacterial toxin LPS [4]) [µg/mL] | γ-IFN Elispot [5] | Chemotaxis (%) [6] [%] | 50%-LPS inhibition, LAL-assay (bacterial toxin LPS [7]) [µg/mL] | 50%-LPS inhibition, Average (bacterial toxin LPS [7]) [µg/mL] | T cell proliferation [8] | also measured |
| --- | --- | --- | --- | --- | --- | --- | --- | --- |
| Ac-IGKEFKRIVERIKRFLRELVRPLR-NH2 [Compound P60.4Ac] | – | – | – | – | – | – | – | Δ presurgery (ABR threshold change) ([1]; 3 days): −2 dB; ABR treshold (dB) ([1]; 3 days): 70 dB; Δ presurgery (ABR threshold change) ([1]; 7 days): 0 dB; ABR treshold (dB) ([1]; 7 days): 72 dB; Δ presurgery (ABR threshold change) ([1]; 14 days): −12 dB; ABR treshold (dB) ([1]; 14 days): 60 dB; Δ presurgery (ABR threshold change) ([1]; 22 days after surgery): −7 dB; ABR treshold (dB) ([1]; 22 days): 65 dB; ABR threshold change ([1]; peptide 2 mg/ml in formulation solution (7% macrogol 10,000, isotonic NaCl, benzalkonium chloride, Na2EDTA, pH 5.5), two animals): 2 dB and 1 dB; Δ presurgery (ABR threshold change) ([1]; postsurgery): −2 dB; ABR treshold (dB) ([1]; postsurgery, 1 kHz, one animal per column): 70 dB; clinical signs, body weight, hematology, clinical biochemistry and macroscopic examination, MTD phase ([2]; i.v. 8 mg/kg/day for 5 days): no clear peptide related findings; mortality, MTD phase ([2]; i.v. 8 mg/kg/day for 5 days): no mortality occurred; clinical signs and body weight, dose escalation phase [2, 9]: no clear deviations; mortality, dose escalation phase [2, 9]: no mortality occurred; skin irritation (Skin irritation test): no skin irritation was detectable; redness of the conjunctivae, time to complete resolution after instillation [3]: ≤ 24 h |
| IGKEFKRIVERIKRFLRELVRPLR [Compound P60.4] | 2.0 ± 1.3 | 2.1 ± 0.6 | 3/8 | 0 ± 0 | 1.7 ± 0.6 | 1.8 ± 0.6 | 0/8 | immune response (summary of table 2) ([5]; compared with natural peptide LL-37): very low immune response |
| IGKEFKRIVQRIKDFLRNLVPRTE [Compound P60.Ac] | 2.1 ± 0.1 | 2.4 ± 0.5 | 3/8 | 61 ± 36 | 1.8 ± 0.8 | 2.0 ± 0.8 | 0/8 | – |
| IGKEFKRIVQRIKDFLRNLVPRTE [Compound P60] | 2.1 ± 0.7 | 1.4 ± 0.1 | 1/8 | 76 ± 39 | 1.5 ± 0.5 | 1.5 ± 0.3 | 0/8 | – |
| LL-37 [reference compound] | 1.6 ± 0.5 | 1.2 ± 0.2 | 4/8 | 84 ± 17 | 1.3 ± 0.2 | 1.3 ± 0.2 | 4/8 | – |

Source: patent US7807617B2, “Peptide inhibitors of toxins derived from LL-37” (priority 2003, dated 2010)
